Data reported in ChEMBL document CHEMBL1201862, “PubChem BioAssay data set” (2004).
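Protocol summary: plate cells (96-well), add compound at 5 concentrations, incubate 48 h, interpolate endpoints linearly. Abbreviation: GI50, concentration required for 50% inhibition of growth.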 Activity calls are given as the source filed them. No stated cut-off is given here; in the data, active = GI50 up to about 1.1 µM and inactive = higher.

Tests used:
Experiment in all cases: inhibition of tumour cell growth, NCI panel, 48 h
DLD-1 = tested on: DLD-1
DMS-114 = tested on: DMS-114
M19-MEL = tested on: M19-MEL
SNB-78 = tested on: SNB-78
BT-549 = tested on: BT-549
DU-145 = tested on: DU-145
MCF7 = tested on: MCF7
HOP-18 = tested on: HOP-18

Measured: GI50

Cc1nc2c(n1-c1ccccc1)C(=O)c1ccccc1C2=O
inactive: DLD-1 48.5 µM | DMS-114 21.6 µM | M19-MEL 17.9 µM | SNB-78 27.5 µM

Cc1nc2cc(/N=N/c3c(C)noc3C)ccc2[nH]1
inactive: BT-549 22.2 µM | DU-145 27.7 µM | MCF7 18.2 µM

COC1OC(C(C)O)C2OC(C)(C)OC12 (stereo not drawn)
inactive: BT-549 > 100 µM | DU-145 > 100 µM | MCF7 > 100 µM

O=C(OCCN=C1c2ccccc2CCc2ccccc21)c1ccccc1
inactive: BT-549 > 100 µM | DU-145 > 100 µM | MCF7 > 100 µM

CC1(C)OC2OC(C(=O)c3ccccc3)C3OC(C)(C)OC3C2O1 (stereo not drawn)
inactive: BT-549 > 100 µM | DU-145 > 100 µM | MCF7 > 100 µM

CSc1nncc2[nH]c(C)nc12
inactive: BT-549 > 100 µM | MCF7 > 100 µM

O=S(=O)(O)c1ccc2c(/N=N/c3ccc(Sc4ccc(/N=N/c5c(O)ccc6cc(S(=O)(=O)O)ccc56)cc4)cc3)c(O)ccc2c1
inactive: BT-549 > 100 µM | DU-145 > 100 µM | MCF7 > 100 µM

CC1=C(C#N)c2nc3ccccc3n2C(=O)C1(C)CCO (stereo not drawn)
inactive: BT-549 > 100 µM | DU-145 > 100 µM | MCF7 > 100 µM

c1ccc2c(c1)[nH]c1c2cc[n+]2cc3c(cc12)CCCC3
inactive: BT-549 2.76 µM | DU-145 2.69 µM | MCF7 2.13 µM

CCOC(=O)C12CCC(=O)C=C1[C@@H](C)C(=O)CC2 (stereo partly drawn)
inactive: DLD-1 > 100 µM | DMS-114 > 100 µM | M19-MEL > 100 µM

CN(C)/C=C/c1nnnn1-c1ccc(I)cc1
inactive: BT-549 22.8 µM | DU-145 28.2 µM | MCF7 12 µM

N=C1NC(c2ccc(Cl)cc2)=CC(c2cccc(Cl)c2)S1 (stereo not drawn)
inactive: BT-549 63.5 µM | DU-145 66.1 µM | MCF7 24.8 µM

O=C1Sc2ccccc2C(=O)N2CCSC12 (stereo not drawn)
inactive: DLD-1 > 100 µM | DMS-114 > 100 µM | HOP-18 25.6 µM | M19-MEL > 100 µM | SNB-78 > 100 µM

O=C(Nc1cccc(O)c1)C(=O)C1C(=O)NC(=S)NC1=O
inactive: DLD-1 > 100 µM | DMS-114 > 100 µM | HOP-18 > 100 µM | M19-MEL > 100 µM | SNB-78 > 100 µM

Cc1ccc(NC(=O)C2C(=O)N(c3ccc(C)c(C)c3)C(=O)/C2=N\NC(N)=O)cc1C (stereo not drawn)
inactive: DLD-1 > 100 µM | DMS-114 56.9 µM | HOP-18 7.85 µM | M19-MEL > 100 µM | SNB-78 > 100 µM

CS/C1=C(\c2ccc(C)cc2)N(c2ccccc2)C(=O)C(=O)N(c2ccccc2)/C(c2ccc(C)cc2)=C(/SC)SS1
inactive: DU-145 > 100 µM | MCF7 > 100 µM

NC(CCCCCP(=O)(c1ccccc1)C1C=CC=CC1)C(=O)O (stereo not drawn)
inactive: BT-549 > 100 µM | DU-145 > 100 µM | MCF7 > 100 µM

CCOC(=O)c1sc2nc(SC)nc3c2c1NCN3C
inactive: BT-549 35.7 µM | DU-145 70.1 µM

CC[C@@]12CCC(=S)N(CCSc3ccccc3)[C@@H]1c1c(n(S(=O)(=O)c3ccc(OC)cc3)c3ccccc13)CC2
inactive: BT-549 48.1 µM | DU-145 > 100 µM | MCF7 > 100 µM

CSc1c(C#N)c(=O)n(N)c2[nH]nc(C)c12
inactive: BT-549 > 100 µM | DU-145 > 100 µM | MCF7 > 100 µM

CN1CCCOC(c2ccc([N+](=O)[O-])cc2)O1 (stereo not drawn)
inactive: BT-549 > 100 µM | DU-145 > 100 µM | MCF7 > 100 µM

CCc1nc(N)c2nc(-c3ccc(C#N)cc3)oc2n1
inactive: BT-549 > 100 µM | DU-145 > 100 µM | MCF7 > 100 µM

O=C(O)CCS/C(=C\C(SCCC(=O)O)c1ccc(Cl)cc1)c1ccc(Cl)cc1 (stereo not drawn)
inactive: BT-549 30.5 µM | DU-145 57.9 µM | MCF7 21.3 µM

Cc1ccc(C)c(NC(=O)C(=O)CC(=O)C2CCOC2=O)c1 (stereo not drawn)
inactive: DLD-1 > 100 µM | DMS-114 > 100 µM | M19-MEL > 100 µM | SNB-78 > 100 µM

COC(=O)C(C/C=C(\C)c1ccccc1)C(C)=O (stereo not drawn)
inactive: DLD-1 89.5 µM | DMS-114 34.9 µM | HOP-18 > 100 µM | M19-MEL 59.8 µM | MCF7 > 70.3 µM | SNB-78 > 68.5 µM

CCCCCC(/C=C/[C@@H]1CC(=O)C[C@H]1O[Si](C)(C)C(C)(C)C)OCOCCOC (stereo partly drawn)
inactive: BT-549 3.26 µM | DU-145 16.3 µM | MCF7 3.65 µM

Cc1nc(O)nc2c1C(NCCCN(C)C)c1cc(Cl)ccc1N2 (stereo not drawn)
inactive: DLD-1 17.8 µM | DMS-114 14.7 µM | M19-MEL 3.91 µM | SNB-78 15.3 µM

O=C(O)CC(O)(C(=O)O)C(O)C(=O)O (stereo not drawn)
inactive: BT-549 > 1000 µM | DU-145 > 1000 µM | MCF7 > 1000 µM

COc1ccc(-c2c(C(C)=O)c(C)n(C3OC(CO)C(O)C(O)C3O)c(=S)c2C#N)cc1 (stereo not drawn)
inactive: BT-549 > 100 µM | DU-145 > 100 µM | MCF7 > 100 µM

CCOC(=O)C(Cl)(NC(=O)OCc1ccccc1)C(F)(F)F (stereo not drawn)
inactive: DU-145 > 100 µM | MCF7 > 100 µM
